Test results published in patent US10626094B2 (La Jolla Institute of Allergy & Immunology, priority 2014, dated 2020).
Read-outs that look alike come from different tables or passages of the source.

Tests used:
[1] = serum creatinine (kidney function) in treated mice; format: in vivo, mouse; conditions: treated mice vs vehicle
Procedure: Serum creatinine levels from mice treated with Compound D1 (ML400) or vehicle (mice shown in FIG. 9) were assessed using the QuantiChrom Creatinine Assay Kit from BioAssay Systems.

[2] = plasma stability, mouse plasma; format: in vitro ADME
Text: (§1) Plasma stability is a measure of the stability of small molecules and peptides in plasma and is an important parameter, which can strongly influence the in vivo efficacy of a test compound. Drug candidates are exposed to enzymatic processes (proteinases. esterases) in plasma, and they can undergo intramolecular rearrangement or bind irreversibly (covalently) to proteins.

[3] = plasma stability, human plasma; format: in vitro ADME
Text: as §1

[4] = biological target: LYP-1 (lymphoid phosphatase, LYP) (Homo sapiens (Human), UniProt Q9Y2R2); assay: LYP-1 phosphatase selectivity dose response assay; format: biochemical
Sequence of LYP-1 (lymphoid phosphatase, LYP) (Q9Y2R2 whole entry, species assumed, canonical isoform): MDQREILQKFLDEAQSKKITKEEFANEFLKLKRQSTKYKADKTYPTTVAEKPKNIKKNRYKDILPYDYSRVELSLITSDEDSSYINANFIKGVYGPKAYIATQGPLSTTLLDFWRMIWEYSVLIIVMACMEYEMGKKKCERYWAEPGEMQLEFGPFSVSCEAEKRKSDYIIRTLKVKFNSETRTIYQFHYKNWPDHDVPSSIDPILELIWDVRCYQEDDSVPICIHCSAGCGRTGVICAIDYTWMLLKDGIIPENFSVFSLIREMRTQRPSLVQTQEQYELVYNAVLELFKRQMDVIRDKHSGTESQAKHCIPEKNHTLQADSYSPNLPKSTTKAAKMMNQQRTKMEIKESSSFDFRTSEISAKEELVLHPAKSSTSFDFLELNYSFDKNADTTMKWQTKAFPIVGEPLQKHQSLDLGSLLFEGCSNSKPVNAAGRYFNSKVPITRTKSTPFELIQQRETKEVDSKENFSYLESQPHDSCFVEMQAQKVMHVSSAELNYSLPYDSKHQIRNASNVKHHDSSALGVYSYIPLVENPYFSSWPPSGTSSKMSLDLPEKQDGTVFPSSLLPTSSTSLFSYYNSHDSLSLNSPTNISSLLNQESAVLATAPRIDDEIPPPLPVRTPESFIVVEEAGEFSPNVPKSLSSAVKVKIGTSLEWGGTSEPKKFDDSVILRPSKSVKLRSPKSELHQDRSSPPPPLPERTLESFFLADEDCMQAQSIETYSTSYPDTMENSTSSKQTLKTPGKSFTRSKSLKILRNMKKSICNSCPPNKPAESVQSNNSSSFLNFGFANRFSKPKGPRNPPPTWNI
Text: (§2) Disclosed herein is a collection of small-molecule inhibitors of the low molecular weight protein tyrosine phosphatase (LMPTP). The assays utilized in the primary and secondary screening were designed to identify allosteric inhibitors of LMPTP. […] The structure of the compounds was further optimized to generate a series of inhibitors of LMPTP-A isoform, with high selectivity over the LMPTP-B isoform, LYP and VHR, and with cellular activity. In an aspect is provided a compound having the formula: […]
(§3) LYP-1 and VHR-1 dose response assays to assess selectivity of Compound D1 against these non-homologous phosphatases.

[5] = system: obese C57BL/6 mice on HFD; assay: IPGTT glucose tolerance in high-fat diet obese mice; format: in vivo, mouse; conditions: 30 mg/kg IP daily, 4 weeks, 2 g glucose/kg
Procedure: Male C57BL/6 mice were maintained on HFD containing 60 kcal % fat for 3 months, followed by daily IP administration of 30 mg/kg Compound D1 or vehicle. After 4 weeks, IPGTT were performed using 2 g glucose/kg body weight. Mean±SEM is shown. *, p<0.05, Two-way ANOVA.

[6] = serum alanine transaminase / aspartate transaminase (liver function) in treated mice; format: in vivo, mouse; conditions: treated mice vs vehicle
Procedure: Serum alanine transaminase or aspartate transaminase levels from mice treated with Compound D1 (ML400) or vehicle (mice shown in FIG. 10) were assessed using EnzyChrom Assay Kits from BioAssay Systems.

[7] = hepatic microsomal stability, human liver microsomes; format: in vitro ADME
Text: In the course of this investigation many compounds with similar potencies in the LMPTP (OMFP) assay were found. In order to determine which compound would be the best candidate for in vivo studies, an abbreviated ADME panel was ran on these compounds, a tabulation of the most interesting data on this set of compounds is illustrated in Table 3 below. From the hepatic microsome stability data the candidate selected for in vivo studies was Compound D1.
The microsomal stability assay is commonly used to rank compounds according to their metabolic stability. This assay addresses the pharmacologic question of how long the parent compound will remain circulating in plasma within the body.

[8] = biological target: LMPTP-A (Low Molecular Weight Protein Tyrosine Phosphatase-A) enzyme (Homo sapiens (Human), UniProt P24666); assay: LMPTP primary screening / LMPTP (OMFP) enzyme inhibition assay, fluorescence intensity; format: biochemical
Sequence of LMPTP-A (Low Molecular Weight Protein Tyrosine Phosphatase-A) enzyme (P24666 whole entry): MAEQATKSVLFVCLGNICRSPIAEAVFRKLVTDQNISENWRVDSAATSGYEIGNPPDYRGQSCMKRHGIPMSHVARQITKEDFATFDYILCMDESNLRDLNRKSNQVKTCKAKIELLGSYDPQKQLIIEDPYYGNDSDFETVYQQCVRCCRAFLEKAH
Method in brief: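 Single-concentration screen, test compounds 20 μM final, […]. Enzyme (0.625 nM) and OMFP (400 μM) react 50 min at room temp, dark, in Bis-Tris buffer pH 6.0 containing DTT 1 mM and Triton X-100 0.01%. Read-out: fluorescence intensity.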

LMPTP [9] = biological target: T1, LMPTP (Homo sapiens (Human), UniProt P24666); assay: LMPTP enzyme inhibition assay with pNPP as substrate; format: biochemical; conditions: n = 2; AID 743308; read-out: LMPTP Orthogonal assay IC50
T1 sequence (P24666 whole entry): as above

LMPTP [10] = biological target: T1, LMPTP; assay: mechanism of action: LMPTP activity on OMFP at increasing inhibitor concentrations (Michaelis-Menten); format: biochemical
Procedure: Activity of 20 nM LMPTP on OMFP substrate in the presence of increasing concentrations of ML400. Reactions were conducted at 37° C. in 50 mM Bis-Tris, pH 6.0 with 1 mM DTT and 0.01% Triton X-100. Mean±SD is shown. Lines show fitting of data to the Michaelis-Menten equation. Note decrease in both Vmax and KM with increasing inhibitor concentration.

[11] = aqueous solubility (buffer pH 5.0-7.4, PBS); format: physicochemical; conditions: for solubility: Pion's buffer
[12] = biological target: VHR-1 (VH1-related phosphatase, VHR) (Homo sapiens (Human), UniProt P51452); assay: VHR-1 phosphatase selectivity dose response assay; format: biochemical
Sequence of VHR-1 (VH1-related phosphatase, VHR) (P51452 whole entry): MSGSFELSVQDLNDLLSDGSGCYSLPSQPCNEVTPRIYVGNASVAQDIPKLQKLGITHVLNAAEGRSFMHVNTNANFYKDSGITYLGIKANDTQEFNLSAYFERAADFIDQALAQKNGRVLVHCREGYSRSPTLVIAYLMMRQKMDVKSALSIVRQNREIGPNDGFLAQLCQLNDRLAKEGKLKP
Text: as §2, §3

kidney function (serum creatinine) [1]: does not Affect Kidney Function
Plasma Stability % Remaining @ 3 hrs ([2]; Mouse plasma, 3 hrs): 68.97%
plasma stability ([2]; mouse plasma): good stability
Plasma Stability % Remaining @ 3 hrs ([3]; Human plasma, 3 hrs): 89.03%
plasma stability ([3]; human plasma): good stability
Fold-Selective ([4]; LMPTP over LYP-1): >60-fold
IC50 ([4]; n = 2, AID743309, read-out: Anti-target LYP-1 IC50): > 80000 nM
liver function (serum alanine transaminase or aspartate transaminase) [6]: does not Affect Liver Function
Hepatic Microsome Stability % Remaining @ 1 hr ([7]; Human microsomes, 1 hr): 61.56%
microsomal stability ([7]; human liver microsomes after 1 hour): moderate stability
IC50 ([8]; LMPTP-A, OMFP substrate, method of Example 2, read-out: IC50): 801 to 5000 nM
IC50 ([8]; Table 2 quinoline series, S sample (synthesized de novo), read-out: LMPTP (OMFP) (IC50)): 1680 nM
IC50 ([8]; Table 5, n = 4, AID686962, AID743307, read-out: LMPTP IC50): 1680 ± 150 nM
IC50 (LMPTP [9]): 3520 ± 330 nM
mechanism of action of LMPTP inhibition (LMPTP [10]; 20 nM LMPTP, OMFP substrate, 37° C., pH 6.0): uncompetitive
effect on Vmax and KM (LMPTP [10]; increasing inhibitor concentration): lowering both Vmax and KM
solubility in PBS ([11]; PBS, versus aqueous buffer): comparable
solubility ([11]; aqueous buffer, pH 5.0): > 112 µg/mL
solubility ([11]; pH 6.2, aqueous buffer): > 112 µg/mL
solubility ([11]; pH 7.4, aqueous buffer): > 112 µg/mL
concentration achieved in aqueous buffer ([11]; pH range of 5.0-7.4): 18-20 ×IC50
Fold-Selective ([12]; LMPTP over VHR-1): >60-fold
IC50 ([12]; n = 2, AID743310, read-out: Anti-target VHR-1 IC50): > 80000 nM
Compound: COc1ccc(-c2cc(NCCCN3CCCCC3)c3ccccc3n2)cc1 [Compound D1, 2-(4-methoxyphenyl)-N-(3-(piperidin-1-yl)propyl)quinolin-4-amine]
glucose tolerance (IPGTT) [5]: Improves Glucose Tolerance
